Reference: ChEMBL document CHEMBL2086269, “Identification of new snake venom metalloproteinase inhibitors using compound screening and rational Peptide design” (ACS Med Chem Lett, 2012)
Counter-ions that a name gives are not always drawn. The source made the active and inactive calls. The calls are words filed in the database; no cut-off is given here. Residues, ends and D or L forms follow the SMILES beside them. *: point of attachment. NHOH = ON*

What was measured:
[1] = biological target: T1, Snake venom metalloproteinase BaP1 (Bothrops asper, UniProt P83512); assay: Inhibition of snake venom BaP1 using Abz-Ala-Gly-Leu-Ala-Nba as substrate incubated for 30 mins prior to substrate addition by fluorescence spectrophotometry
T1 sequence (P83512 whole entry): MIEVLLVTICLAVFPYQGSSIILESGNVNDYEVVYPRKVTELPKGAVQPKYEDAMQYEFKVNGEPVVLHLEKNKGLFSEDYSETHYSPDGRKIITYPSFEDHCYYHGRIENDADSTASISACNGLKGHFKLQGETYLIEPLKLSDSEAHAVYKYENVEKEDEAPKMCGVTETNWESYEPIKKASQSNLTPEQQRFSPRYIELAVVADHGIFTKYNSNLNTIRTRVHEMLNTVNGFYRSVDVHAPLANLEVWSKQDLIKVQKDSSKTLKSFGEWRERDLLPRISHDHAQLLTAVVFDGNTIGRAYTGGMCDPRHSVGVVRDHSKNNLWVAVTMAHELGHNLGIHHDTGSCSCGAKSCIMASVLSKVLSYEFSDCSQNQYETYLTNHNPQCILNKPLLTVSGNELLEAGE

[2] = Displacement of PAC1 from Zn2+ incubated for 30 mins prior to PAC1 addition measured after 30 mins by spectrophotometry

Structure (SMILES)	IC50 [1] [µM]	Activity [2]
CC(C)C[C@H](NC(=O)[C@@H](N)Cc1c[nH]c2ccccc12)C(=O)N[C@@H](CCCNC(=N)N)C(=O)NO	217	
CC(C)C[C@H](NC(=O)[C@@H](N)Cc1ccccc1)C(=O)N[C@@H](CCCNC(=N)N)C(=O)NO (H-Phe-Leu-Arg-{NHOH})	4.6	Active
CC(C)C[C@H](NC(=O)[C@@H](N)Cc1ccccc1)C(=O)N[C@@H](Cc1cnc[nH]1)C(=O)NO (H-Phe-Leu-His-{NHOH})	108	
CC(C)C[C@H](NC(=O)[C@@H](N)Cc1ccccc1)C(=O)N[C@@H](Cc1ccccc1)C(N)=O (H-Phe-Leu-Phe-NH2)	825	
CC(C)C[C@H](NC(=O)[C@@H](N)Cc1ccccc1)C(=O)N[C@@H](Cc1ccccc1)C(=O)NO (H-Phe-Leu-Phe-{NHOH})	0.5	Active
CC(C)C[C@H](NC(=O)[C@@H](N)Cc1ccccc1)C(=O)N[C@@H](Cc1ccc(O)cc1)C(N)=O (H-Phe-Leu-Tyr-NH2)	> 1000	
CC(C)C[C@H](NC(=O)[C@@H](N)Cc1ccccc1)C(=O)N[C@@H](Cc1ccc(O)cc1)C(=O)NO (H-Phe-Leu-Tyr-{NHOH})	30.9	
CC(C)C[C@H](NC(=O)[C@@H](N)Cc1c[nH]c2ccccc12)C(=O)N[C@@H](Cc1cnc[nH]1)C(=O)NO (H-Trp-Leu-His-{NHOH})	58.4	
CC(C)C[C@H](NC(=O)[C@@H](N)Cc1c[nH]c2ccccc12)C(=O)N[C@@H](Cc1ccccc1)C(N)=O (H-Trp-Leu-Phe-NH2)	> 1000	
CC(C)C[C@H](NC(=O)[C@@H](N)Cc1c[nH]c2ccccc12)C(=O)N[C@@H](Cc1ccccc1)C(=O)NO (H-Trp-Leu-Phe-{NHOH})	34.2	
CC(C)C[C@H](NC(=O)[C@@H](N)Cc1c[nH]c2ccccc12)C(=O)N[C@@H](Cc1ccc(O)cc1)C(N)=O (H-Trp-Leu-Tyr-NH2)	402	
CC(C)C[C@H](NC(=O)[C@@H](N)Cc1c[nH]c2ccccc12)C(=O)N[C@@H](Cc1ccc(O)cc1)C(=O)NO (H-Trp-Leu-Tyr-{NHOH})	46.2	
CNC(=O)[C@H](Cc1ccccc1)NC(=O)[C@H](CC(C)C)[C@H](CSc1cccs1)C(=O)NO [BATIMASTAT]	1.2	
COc1ccc2c3c([nH]c2c1)C(C)=NCC3 [HARMALINE HYDROCHLORIDE DIHYDRATE]	70.4	
NC(=O)N/N=C/c1ccc([N+](=O)[O-])o1 [NITROFURAZONE]	88.1	
COc1cc2c(cc1OC)-c1cc3ccc(OC)c(OC)c3c[n+]1CC2 [PALMATINE CHLORIDE]	93.3	
Nc1ccc(/N=N/c2ccccc2)c(N)n1 [PHENAZOPYRIDINE HYDROCHLORIDE]	54.3	
